According to patent publication US20210070748A1, “INHIBITORS OF BRUTONS TYROSINE KINASE” (Pharmacyclics LLC, priority 2015, published 2021):
Where two headings read alike, the source gives them in different places.

What was measured:
Type in all cases: biochemical
[1] = molecular target: EGFR (Homo sapiens, UniProt P00533); assay: Inhibition of a panel of kinases, in vitro HotSpot kinase assay: EGFR
Method: (§1) The degree of inhibition of a panel of kinases is determined using the in vitro HotSpot kinase assay (purified enzymes, ^33P-ATP, an appropriate substrate and 1 μM ATP).

[2] = molecular target: T1, ITK (Homo sapiens, UniProt Q08881); assay: Inhibition of a panel of kinases, in vitro HotSpot kinase assay: ITK
T1 sequence (Q08881 1-620): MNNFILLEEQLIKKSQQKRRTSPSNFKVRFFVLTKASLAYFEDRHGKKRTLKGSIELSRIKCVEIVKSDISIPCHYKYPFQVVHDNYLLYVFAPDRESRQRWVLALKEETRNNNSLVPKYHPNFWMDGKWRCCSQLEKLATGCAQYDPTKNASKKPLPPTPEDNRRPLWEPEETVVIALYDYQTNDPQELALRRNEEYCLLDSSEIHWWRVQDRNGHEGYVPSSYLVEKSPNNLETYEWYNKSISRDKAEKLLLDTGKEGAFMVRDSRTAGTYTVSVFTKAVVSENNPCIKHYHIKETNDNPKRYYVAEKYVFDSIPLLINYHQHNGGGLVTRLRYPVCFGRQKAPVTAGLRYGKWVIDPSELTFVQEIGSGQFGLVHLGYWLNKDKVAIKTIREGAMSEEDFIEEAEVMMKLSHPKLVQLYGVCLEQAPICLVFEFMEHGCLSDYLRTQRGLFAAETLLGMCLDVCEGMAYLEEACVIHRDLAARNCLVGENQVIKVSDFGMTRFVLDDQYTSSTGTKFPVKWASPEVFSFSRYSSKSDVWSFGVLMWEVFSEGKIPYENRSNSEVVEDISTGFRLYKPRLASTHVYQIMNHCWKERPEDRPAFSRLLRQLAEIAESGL
Method: as §1

[3] = molecular target: SRC (Homo sapiens, UniProt P12931); assay: Inhibition of a panel of kinases, in vitro HotSpot kinase assay: SRC
Method: as §1

[4] = molecular target: LCK (Homo sapiens, UniProt P06239); assay: Inhibition of a panel of kinases, in vitro HotSpot kinase assay: LCK; details: read-out: IC50 LCK
[5] = molecular target: T2, TEC (Homo sapiens, UniProt P42680); assay: Inhibition of a panel of kinases, in vitro HotSpot kinase assay: TEC
T2 sequence (P42680 1-631): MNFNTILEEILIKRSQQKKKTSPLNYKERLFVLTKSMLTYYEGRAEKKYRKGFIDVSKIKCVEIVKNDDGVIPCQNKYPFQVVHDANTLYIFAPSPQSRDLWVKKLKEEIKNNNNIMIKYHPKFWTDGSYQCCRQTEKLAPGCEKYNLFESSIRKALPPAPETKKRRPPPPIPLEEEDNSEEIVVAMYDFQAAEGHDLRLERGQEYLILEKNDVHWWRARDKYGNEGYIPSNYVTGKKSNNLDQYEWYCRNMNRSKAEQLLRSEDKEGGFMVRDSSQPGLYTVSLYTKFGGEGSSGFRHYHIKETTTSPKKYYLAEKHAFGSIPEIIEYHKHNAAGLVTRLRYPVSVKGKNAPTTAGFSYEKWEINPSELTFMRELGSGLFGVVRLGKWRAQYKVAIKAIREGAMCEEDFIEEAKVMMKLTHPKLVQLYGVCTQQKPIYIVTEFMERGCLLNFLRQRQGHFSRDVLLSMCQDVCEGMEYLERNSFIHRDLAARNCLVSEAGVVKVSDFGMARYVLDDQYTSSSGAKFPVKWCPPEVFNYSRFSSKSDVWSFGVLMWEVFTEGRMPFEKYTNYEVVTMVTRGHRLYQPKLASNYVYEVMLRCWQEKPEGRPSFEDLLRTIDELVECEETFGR
Method: as §1

[6] = molecular target: T3, JAK3 (Homo sapiens, UniProt P52333); assay: Inhibition of a panel of kinases, in vitro HotSpot kinase assay: JAK3; details: read-out: IC50 JAK3
T3 sequence (P52333 1-1124): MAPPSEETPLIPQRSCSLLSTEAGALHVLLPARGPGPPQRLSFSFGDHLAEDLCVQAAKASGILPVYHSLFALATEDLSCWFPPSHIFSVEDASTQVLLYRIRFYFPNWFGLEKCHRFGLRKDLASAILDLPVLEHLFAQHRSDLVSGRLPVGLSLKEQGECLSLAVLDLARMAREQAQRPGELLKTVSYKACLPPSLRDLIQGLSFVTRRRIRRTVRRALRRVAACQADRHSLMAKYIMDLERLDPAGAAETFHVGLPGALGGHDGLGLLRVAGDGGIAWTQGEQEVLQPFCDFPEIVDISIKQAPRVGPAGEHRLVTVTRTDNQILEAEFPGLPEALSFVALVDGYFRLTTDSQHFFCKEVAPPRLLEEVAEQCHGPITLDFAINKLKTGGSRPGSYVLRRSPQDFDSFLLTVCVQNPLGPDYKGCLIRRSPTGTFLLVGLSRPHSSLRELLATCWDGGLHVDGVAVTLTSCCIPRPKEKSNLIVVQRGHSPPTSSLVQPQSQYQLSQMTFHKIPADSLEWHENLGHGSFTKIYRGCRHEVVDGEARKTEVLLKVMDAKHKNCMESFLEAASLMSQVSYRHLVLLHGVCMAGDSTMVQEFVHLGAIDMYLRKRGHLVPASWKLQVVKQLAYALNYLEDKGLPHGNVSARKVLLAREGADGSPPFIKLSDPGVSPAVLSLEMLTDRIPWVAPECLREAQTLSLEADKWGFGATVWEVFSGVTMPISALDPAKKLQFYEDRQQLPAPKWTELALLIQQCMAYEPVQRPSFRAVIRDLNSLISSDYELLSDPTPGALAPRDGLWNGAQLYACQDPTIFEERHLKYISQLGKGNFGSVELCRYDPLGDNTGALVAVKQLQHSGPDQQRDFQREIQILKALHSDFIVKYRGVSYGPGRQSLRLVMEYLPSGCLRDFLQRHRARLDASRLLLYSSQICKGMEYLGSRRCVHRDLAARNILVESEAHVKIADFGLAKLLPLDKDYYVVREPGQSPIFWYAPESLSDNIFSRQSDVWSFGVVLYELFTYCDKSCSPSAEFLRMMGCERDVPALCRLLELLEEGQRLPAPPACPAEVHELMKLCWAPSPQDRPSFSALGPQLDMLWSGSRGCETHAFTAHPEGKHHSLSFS

[7] = Table 13, A compounds, 1 μM ATP

SRC, sequence (P12931 whole entry): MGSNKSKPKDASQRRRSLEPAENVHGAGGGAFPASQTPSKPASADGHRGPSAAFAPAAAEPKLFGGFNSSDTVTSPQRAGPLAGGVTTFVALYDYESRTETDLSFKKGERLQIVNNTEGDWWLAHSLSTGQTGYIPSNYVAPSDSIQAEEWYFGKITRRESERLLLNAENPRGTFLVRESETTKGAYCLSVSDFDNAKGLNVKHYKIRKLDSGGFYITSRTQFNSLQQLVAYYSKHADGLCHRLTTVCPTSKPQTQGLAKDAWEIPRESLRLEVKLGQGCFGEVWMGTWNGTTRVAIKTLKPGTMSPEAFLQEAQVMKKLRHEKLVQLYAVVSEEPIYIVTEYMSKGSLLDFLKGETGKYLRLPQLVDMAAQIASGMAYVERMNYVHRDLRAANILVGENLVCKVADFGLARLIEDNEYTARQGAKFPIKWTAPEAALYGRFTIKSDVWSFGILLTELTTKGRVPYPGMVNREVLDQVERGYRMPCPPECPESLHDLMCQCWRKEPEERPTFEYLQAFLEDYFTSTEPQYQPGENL
LCK, sequence (P06239 whole entry): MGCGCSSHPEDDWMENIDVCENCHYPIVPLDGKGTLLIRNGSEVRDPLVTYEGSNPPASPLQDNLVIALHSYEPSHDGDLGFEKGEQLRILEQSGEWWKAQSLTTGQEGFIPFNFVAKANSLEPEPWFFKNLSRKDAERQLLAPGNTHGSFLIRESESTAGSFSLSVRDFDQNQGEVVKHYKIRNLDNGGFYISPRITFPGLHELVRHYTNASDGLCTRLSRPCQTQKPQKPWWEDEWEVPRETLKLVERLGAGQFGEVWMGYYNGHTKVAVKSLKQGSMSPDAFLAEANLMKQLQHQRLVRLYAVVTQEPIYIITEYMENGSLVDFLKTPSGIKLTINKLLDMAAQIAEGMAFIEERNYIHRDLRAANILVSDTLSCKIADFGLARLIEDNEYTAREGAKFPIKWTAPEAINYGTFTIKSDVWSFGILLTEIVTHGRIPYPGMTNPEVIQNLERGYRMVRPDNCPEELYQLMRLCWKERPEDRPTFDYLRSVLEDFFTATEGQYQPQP
EGFR, sequence (P00533 25-1210): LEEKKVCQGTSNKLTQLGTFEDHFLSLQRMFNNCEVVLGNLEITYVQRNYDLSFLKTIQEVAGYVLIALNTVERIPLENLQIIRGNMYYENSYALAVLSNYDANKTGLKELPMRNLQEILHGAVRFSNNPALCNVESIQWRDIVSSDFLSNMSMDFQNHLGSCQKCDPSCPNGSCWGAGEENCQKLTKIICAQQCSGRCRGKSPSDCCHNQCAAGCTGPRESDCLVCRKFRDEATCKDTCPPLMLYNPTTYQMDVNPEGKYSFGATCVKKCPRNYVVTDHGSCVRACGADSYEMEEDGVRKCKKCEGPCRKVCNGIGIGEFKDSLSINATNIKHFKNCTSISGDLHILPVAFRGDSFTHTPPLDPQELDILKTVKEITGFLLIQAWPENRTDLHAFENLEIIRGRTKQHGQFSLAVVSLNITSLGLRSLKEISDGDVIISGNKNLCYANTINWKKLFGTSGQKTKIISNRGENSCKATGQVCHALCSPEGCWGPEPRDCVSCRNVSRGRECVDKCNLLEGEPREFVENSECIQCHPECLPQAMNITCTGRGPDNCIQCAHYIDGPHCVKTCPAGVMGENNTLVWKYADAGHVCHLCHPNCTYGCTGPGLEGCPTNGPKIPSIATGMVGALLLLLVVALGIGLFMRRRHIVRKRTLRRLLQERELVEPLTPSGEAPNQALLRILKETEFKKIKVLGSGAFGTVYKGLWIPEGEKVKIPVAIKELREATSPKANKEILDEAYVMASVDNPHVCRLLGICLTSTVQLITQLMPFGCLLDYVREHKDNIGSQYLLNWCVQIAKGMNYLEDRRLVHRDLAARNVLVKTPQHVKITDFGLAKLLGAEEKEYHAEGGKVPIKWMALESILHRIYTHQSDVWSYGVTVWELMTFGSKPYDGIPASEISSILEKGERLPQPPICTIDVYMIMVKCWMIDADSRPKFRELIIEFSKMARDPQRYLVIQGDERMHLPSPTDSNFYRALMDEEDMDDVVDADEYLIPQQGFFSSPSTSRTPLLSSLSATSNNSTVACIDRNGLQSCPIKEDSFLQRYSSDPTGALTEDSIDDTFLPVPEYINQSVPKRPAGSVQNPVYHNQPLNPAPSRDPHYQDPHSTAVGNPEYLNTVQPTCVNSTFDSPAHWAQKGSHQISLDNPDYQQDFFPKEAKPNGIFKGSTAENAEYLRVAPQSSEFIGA

SMILES	IC50 [1, 7] [nM]	IC50 [2, 7] [nM]	IC50 [3, 7] [nM]	IC50 [4, 7] [nM]	IC50 [5, 7] [nM]	IC50 [6, 7] [nM]	IC50 ([1]; E compounds, Table 17) [nM]	IC50 ([2]; E compounds, Table 17) [nM]	IC50 ([3]; E compounds, Table 17) [nM]	IC50 ([4]; E compounds, Table 17) [nM]	IC50 ([5]; E compounds, Table 17) [nM]	IC50 ([6]; E compounds, Table 17) [nM]
C[C@@H]1[C@H](NC(=O)c2ccc(C3CC3)cc2F)CCCN1c1cnc(C(N)=O)c(Nc2cnn(C)c2)c1 [Example A-127, 5-[(2R,3R)-3-(4-cyclopropyl-2-fluorobenzamido)-2-methylpiperidin-1-yl]-3-[(1-methyl-1H-pyrazol-4-yl)amino]pyridine-2-carboxamide]	1000 to 10000	1000 to 10000	100 to 1000	100 to 1000	100 to 1000	1000 to 10000						
C[C@@H]1[C@H](n2ccc3cc(C4CC4)ccc3c2=O)CCCN1c1cnc(C(N)=O)c(Nc2ccc(N3CCN(C)CC3)cc2)n1 [Example A-140, 5-[(2R,3R)-3-(6-cyclopropyl-1-oxo-1,2-dihydro-isoquinolin-2-yl)-2-methylpiperidin-1-yl]-3-{[4-(4-methylpiperazin-1-yl)phenyl]amino}pyrazine-2-carboxamide]	100 to 1000	100 to 1000	10 to 100	10 to 100	10 to 100	1000 to 10000						
C[C@@H]1[C@H](NC(=O)c2ccc(C(C)(C)N3CCCC3)cc2)CCCN1c1cnc(C(N)=O)c(Nc2cnn(C)c2)n1 [Example E-143, 3-((1-methyl-1H-pyrazol-4-yl)amino)-5-((2R,3R)-2-methyl-3-(4-(2-(pyrrolidin-1-yl)propan-2-yl)benzamido)piperidin-1-yl)pyrazine-2-carboxamide]							> 10000	100 to 1000	10 to 100	10 to 100	≤ 10	100 to 1000
C[C@@H]1[C@H](NC(=O)c2ccc(C3CC3)cc2)CCCN1c1cnc(C(N)=O)c(Nc2cnn(C)c2)n1 [Example A-169, 5-[(2R,3R)-3-(4-cyclopropylbenzamido)-2-methylpiperidin-1-yl]-3-[(1-methyl-1H-pyrazol-4-yl)amino]pyrazine-2-carboxamide]	1000 to 10000	1000 to 10000	100 to 1000	100 to 1000	10 to 100	1000 to 10000						
C[C@@H]1[C@H](NC(=O)c2ccc(C3CC3)cc2F)CCCN1c1cnc(C(N)=O)c(Nc2cc(CN3CCOCC3)ns2)n1 [Example A-128, 5-[(2R,3R)-3-(4-cyclopropyl-2-fluorobenzamido)-2-methylpiperidin-1-yl]-3-{[3-(morpholin-4-ylmethyl)-1,2-thiazol-5-yl]amino}pyrazine-2-carboxamide]	100 to 1000	100 to 1000	10 to 100	10 to 100	10 to 100	100 to 1000						
C[C@@H]1[C@H](NC(=O)c2ccc3oc(C4CC4)nc3c2)CCCN1c1cnc(C(N)=O)c(Nc2cnn(C)c2)n1 [Example E-139, N-((2R,3R)-1-(5-carbamoyl-6-((1-methyl-1H-pyrazol-4-yl)amino)pyrazin-2-yl)-2-methylpiperidin-3-yl)-2-cyclopropylbenzo[d] oxazole-5-carboxamide]							100 to 1000	100 to 1000	10 to 100	10 to 100	≤ 10	100 to 1000
C[C@@H]1[C@H](NC(=O)c2ccc(C3CC3)nc2)CCCN1c1cnc(C(N)=O)c(Nc2cnn(C)c2)n1 [Example A-190, 5-((2R,3R)-3-(6-cyclopropylnicotinamido)-2-methylpiperidin-1-yl)-3-(1-methyl-1H-pyrazol-4-ylamino)pyr-azine-2-carboxamide]	1000 to 10000	100 to 1000	10 to 100	100 to 1000	10 to 100	1000 to 10000						
C[C@@H]1[C@H](NC(=O)c2ccc(C3CC3)cc2)CCCN1c1cnc(C(N)=O)c(Nc2ccc(N3CCN(C)CC3)cc2)n1 [Example A-170, 5-[(2R,3R)-3-(4-cyclopropylbenzamido)-2-methylpiperidin-1-yl]-3-{[4-(4-methylpiperazin-1-yl)phenyl]amino}pyrazine-2-carboxamide]	100 to 1000	100 to 1000	10 to 100	10 to 100	10 to 100	1000 to 10000						
C=CC(=O)N1CC[C@@H](N(C)c2cnc(C(N)=O)c(Nc3ccc(C4CCN(C5CCCC5)CC4)cc3)n2)C1 [Example E-109, (R)-5-((1-acryloylpyrrolidin-3-yl)(methyl)amino)-3-(4-(1-cyclopentylpiperidin-4-yl)phenylamino)pyrazine-2-carboxamide]							10 to 100	≤ 10	10 to 100	100 to 1000	≤ 10	< 10
C[C@@H]1[C@H](NC(=O)c2ccc(C3CC3)cc2F)CCCN1c1cnc(C(N)=O)c(Nc2ccc(CN3CCN(C)CC3)cc2)n1 [Example A-106, 5-[(2R,3R)-3-(4-cyclopropyl-2-fluorobenzamido)-2-methylpiperidin-1-yl]-3-({4-[(4-methylpiperazin-1-yl)meth-yl]phenyl}amino)pyrazine-2-carboxamide]	100 to 1000	100 to 1000	100 to 1000	10 to 100	10 to 100	100 to 1000						
C=CC(=O)N1CCC[C@@H](Nc2nnc(C(N)=O)c(Nc3ccc(-c4ncco4)cc3)n2)C1 [Example E-40, (R)-3-(1-acryloylpiperidin-3-ylamino)-5-(4-(oxazol-2-yl)phenylamino)-1,2,4-triazine-6-carboxamide]							≤ 10	10 to 100	100 to 1000	100 to 1000	≤ 10	< 10
C[C@@H]1[C@H](NC(=O)c2ccc(C3CC3)cn2)CCCN1c1cnc(C(N)=O)c(Nc2ccc(N3CCN(C)CC3)cc2)n1 [Example A-179, 5-[(2R,3R)-3-(5-cyclopropyl-pyridine-2-amido)-2-methylpiperidin-1-yl]-3-{[4-(4-methylpiperazin-1-yl)phenyl]amino}pyrazine-2-carboxamide]	100 to 1000	100 to 1000	10 to 100	100 to 1000	10 to 100	1000 to 10000						
